Source: patent US8210776B2, “Calcification method using calcifying bacteria” (Soletanche Freyssinet, priority 2007, dated 2012)

How the values were obtained:
[1] = tested on: Sporosarcina pasteurii—CIP 66.21 Pasteur; test: Degree of attachment in sand columns, chicory and/or divalent ion salt added before injection (Example 4); assay type: cell-based; conditions: 10 mM Ca(NO3)2 added to the culture medium; 20° C.
Method: The columns were prepared in accordance with Example 3.
The bacteria (Sporosarcina pasteurii—CIP 66.21 Pasteur) were cultured in a culture medium (1 L of laboratory water) containing 10 g of yeast extract, 3 g of NaCl, 2.4 g of urea, 0.1 g of MgCl2 and 0.0128 g of NiCl2. When the bacteria are at the end of the exponential phase, the following are added to the culture medium: • either a source of calcium (10 mM Ca(NO3)2); • or chicory in a proportion of 4 or 8 g/L; • or a source of calcium (10 mM Ca(NO3)2) and chicory in a proportion of 4 or 8 g/L.
The whole was left to stir for one hour before being injected into the columns.
The injection conditions are identical to those of Example 3. All the experiments were carried out at 20° C.
The cumulative column inlet and outlet OD values are compared and expressed in the form of percentage loss of OD, which represents the degree of attachment of the bacteria in the column. FIG. 5 represents the degrees of attachment of the bacteria stimulated by the addition of chicory, of calcium salt or of both to the culture medium before injection.
The protocol is identical to that of Example 4.1, with the calcium ions (Ca(NO3)2) being replaced with magnesium ions (Mg(NO3)2).

Sporosarcina pasteurii = test: Culture with inulin/chicory replacing part of the yeast extract: attachment to glassware, growth, enzymatic activity; assay type: cell-based
Excerpt: In order to determine the amount of inulin necessary in order to act on the synthesis of urease and on the production of EPS in Sporosarcina pasteurii, a part of the nitrogenous carbon source (yeast extract) was replaced with chicory.

[2] = tested on: S. pasteurii (CIP 66.21 Pasteur); test: Screening for sugars that can be assimilated, API strips (API 20 E and API 50CH); assay type: cell-based, Sporosarcina pasteurii; conditions: API strip analysis
Excerpt: The first step was to carry out a screening of the various sugars that exist, in order to identify that or those which is (are) assimilable and which stimulate EPS synthesis in Sporosarcina pasteurii, preferably without inhibiting urease synthesis.
For this, two types of API strips were used: API 20 E and API 50CH. These tests are in the form of microtubes containing dehydrated substrates and which are inoculated with a bacterial suspension.

[3] = tested on: Sporosarcina pasteurri—CIP 66.21 Pasteur; test: Degree of attachment of bacteria to Fontainebleau sand columns, chicory in the culture medium (Example 3); assay type: cell-based, Sporosarcina pasteurii; conditions: media with versus without chicory
Method: The chicory used is powdered extract of freeze-dried chicory, derived from the root of Cichorium intibus and sold under the trade name “Chicorée soluble Leroux”. For this, two tests were carried out in parallel on columns:
The columns were made up of a PVC tube 63 mm in diameter and 200 mm in height, positioned between two PVC bases. One centimeter of filter sand was placed at the two ends and the whole of the column was made up with Fontainebleau sand tamped down under water by tapping. The Fontainebleau sand is the NE34-grade sand from SIFRACO. The injections were carried out from top to bottom. […]
Monitoring of the OD at the column outlet makes it possible to know the degree of attachment of the bacteria to the Fontainebleau sand. A calibration OD measurement was carried out beforehand on each of the media from which the bacteria were extracted in order to be free of differences in reading related to the medium itself. […]
Since the column porosity volume is 250 mL, the detection of the first bacteria at the column outlet is carried out after having injected 250 mL of culture medium. The graphic representation of the cumulative OD at the column inlet and at the column outlet makes it possible to readily visualize the degree of attachment of the bacteria to the granular substrate. […] The outlet ODs are also measured every minute. […]

## O=[N+]([O-])[O-].O=[N+]([O-])[O-].[Ca+2] [Ca(NO3)2]
[1]
  Degree of attachment (%): 49.5%

## Inulin
Sporosarcina pasteurii
  adhesion of the bacteria to the laboratory glassware through the production of EPS: demonstrated adhesion
  growth of the bacteria: more rapid
[2]
  carbon source that can be assimilated by Sporosarcina pasteurii: can be assimilated
[3]
  bacterial growth (inlet OD): greater
